Laboratory results: patent US12576050B2, “Dosage regime” (priority 2018, dated 2026)

Columns and labels:
[1] = test system: P. aeruginosa isolate from CF sputum; test: Kirby Bauer antibiotic disc sensitivity on agar containing cysteamine; format: cell-based
Source text: Legend: […], I, R=sensitive, intermediate or resistant by interpretive criteria for antibiotic disc sensitivity testing method against P. aeruginosa. No criteria for sulphonamides against P. aeruginosa, however Bactrim/co-trimoxazole sometimes used in CF therefore included here with interpretive criteria for Stenotrophomonas. *=p<0.05 two-way ANOVA Sidak's multiple comparison test.
(§1) As a result, the patient was taken off regimen of ceftolozane+tazobactam, Colomycin and Pulmozyme and put onto 14-day course of cysteamine 450 mg BID (bi-daily) with Tobramycin and Colomycin. Patient was discharged from hospital 3-days later.

[2] = test system: people with CF experiencing an acute exacerbation; conditions: adjunct to treatment of exacerbations, 14 days
[3] = test system: people with CF experiencing an acute exacerbation; test: CARE-CF-1 trial: PROM CFRSD-CRISS score; format: in vivo; conditions: for CFRSD-CRISS score, Day 7 LSMD (cysteamine − placebo) / CFRSD-CRISS score, Day 14 LSMD (cysteamine − placebo): MMRM, ITT
[4] = test system: P. aeruginosa isolated from sputum from a CF patient; test: Alginate production by sputum isolates (Alcian Blue assay); format: cell-based
Experimental: Isolate A produced 19.93 μg/ml (+/−1.9 SD) alginate and had mucoid phenotype. Isolate B produced 4.47 μg/ml (+/−2.39 SD) with dry colonies.
Results provided in FIG. 5 were derived from a study that conforms to the general quantitative assay described in J. Phycol. 13, 345-348 (1977) “Alcian Blue: A Quantitative Aqueous Assay for Algal Acid and Sulfated Polysaccharides”; J Ramus.

blood leukocytes = test: CARE-CF-1 trial: blood leukocyte count (WCC); format: in vivo, people with CF
[5] = test system: people with CF experiencing an acute exacerbation; test: CARE-CF-1 trial: PROM CFQ-R score; format: in vivo; conditions: 450 doses, day 14; greatest for 450 BID
[6] = test system: Gram −ve organisms in sputum; test: CARE-CF-1 trial: sputum bacterial load; format: in vivo, people with CF; conditions: for Sputum Gram −ve organisms, Day 21 change from baseline, mean: 14 day course; for Sputum Gram −ve organisms, Day 14 LSMD (cysteamine − placebo): MMRM, ITT; for Sputum Gram −ve organisms, D 14 mean: with standard of care
CF patient = test: Single patient treated with cysteamine 450 mg bi-daily plus antibiotics; format: in vivo; conditions: cysteamine 450 mg BID with Tobramycin and Colomycin, one patient
Experimental: as §1, with “Patient trialled with combination treatment of 450 mg bi-daily in combination with antibiotics. […] As” for “As”

NCCS [Cysteamine, cysteamine]
Zone of clearance and sensitivity to sulphonamides ([1]; Müller Hinton agar containing cysteamine compared with agar alone): significant increase | Sensitivity to various antibiotics in combination with cysteamine ([1]; in vitro, patient isolate (FIG. 8)): increased sensitivity | Safety and tolerability [2]: safe and reasonably well tolerated | CFRSD-CRISS score, Day 7 change from baseline, mean ([3]; 150 mg TID): −11.9 | CFRSD-CRISS score, Day 7 LSMD (cysteamine − placebo) ([3]; 150 mg TID, p 0.1991): 4.25 | CFRSD-CRISS score, Day 14 LSMD (cysteamine − placebo) ([3]; 150 mg TID, p 0.9098): 0.57 | CFRSD-CRISS score, D 14 mean ([3]; 150 mg tid): 32.4 | CFRSD-CRISS score, Day 14 change from baseline, mean ([3]; 150 mg tid): −15.5 | CFRSD-CRISS score, D 14 Δ −placebo mean ([3]; 150 mg tid, p 0.87): 0.8 | CFRSD-CRISS score, Day 7 change from baseline, mean ([3]; 300 mg TID): −10.5 | CFRSD-CRISS score, Day 7 LSMD (cysteamine − placebo) ([3]; 300 mg TID, p 0.0474): 6.48 | CFRSD-CRISS score, Day 14 LSMD (cysteamine − placebo) ([3]; 300 mg TID, p 0.6439): 2.32 | CFRSD-CRISS score, D 14 mean ([3]; 300 mg tid): 34.2 | CFRSD-CRISS score, Day 14 change from baseline, mean ([3]; 300 mg tid): −14.8 | CFRSD-CRISS score, D 14 Δ −placebo mean ([3]; 300 mg tid, p 0.70): 1.9 | CFRSD-CRISS score, Day 7 change from baseline, mean ([3]; 450 mg BID): −19.1 | CFRSD-CRISS score, Day 14 LSMD (cysteamine − placebo) ([3]; 450 mg BID, p 0.0496): −9.85 | CFRSD-CRISS score, Day 7 LSMD (cysteamine − placebo) ([3]; 450 mg BID, p 0.8081): −0.78 | CFRSD-CRISS score, Day 7 change from baseline, mean ([3]; 450 mg QD): −18.1 | CFRSD-CRISS score, Day 14 LSMD (cysteamine − placebo) ([3]; 450 mg QD, p 0.1814): −7.36 | CFRSD-CRISS score, Day 7 LSMD (cysteamine − placebo) ([3]; 450 mg QD, p 0.7569): −1.10 | CFRSD-CRISS score, Day 14 LSMD (cysteamine QD/BID − TID) ([3]; 450 mg TDD: 450 mg QD − 150 mg TID, p 0.1725): −7.94 | CFRSD-CRISS score, Day 7 change from baseline, mean ([3]; 450 mg TID): −17.8 | CFRSD-CRISS score, Day 14 LSMD (cysteamine − placebo) ([3]; 450 mg TID, p 0.2097): −6.27 | CFRSD-CRISS score, Day 7 LSMD (cysteamine − placebo) ([3]; 450 mg TID, p 0.7324): 1.11 | Improvements in CFRSD-CRISS domains ([3]; 450 mg bi-daily compared with the other doses (FIG. 6)): best improvements | CFRSD-CRISS score, D 14 mean ([3]; 450 mg bid): 25.4 | CFRSD-CRISS score, Day 14 change from baseline, mean ([3]; 450 mg bid): −28.1 | CFRSD-CRISS score, D 14 Δ −placebo mean ([3]; 450 mg bid, p 0.035): −10.6 | CFRSD-CRISS score, D 14 mean ([3]; 450 mg qd): 26.1 | CFRSD-CRISS score, Day 14 change from baseline, mean ([3]; 450 mg qd): −24.3 | CFRSD-CRISS score, D 14 Δ −placebo mean ([3]; 450 mg qd, p 0.090): −9.0 | CFRSD-CRISS score, D 14 mean ([3]; 450 mg tid): 31.6 | CFRSD-CRISS score, Day 14 change from baseline, mean ([3]; 450 mg tid): −23.9 | CFRSD-CRISS score, D 14 Δ −placebo mean ([3]; 450 mg tid, p 0.34): −4.8 | CFRSD-CRISS score, Day 14 LSMD (cysteamine QD/BID − TID) ([3]; 900 mg TDD: 450 mg BID − 300 mg TID, p 0.0222): −12.17 | CRISS score at day 14 compared with standard of care plus placebo ([3]; 450 BID dose): significant improvement over and above placebo | Potentiation of other antibiotics (CRISS, post-hoc) ([3]; 450 BID versus 900 mg as 3 times 300 mg (FIG. 9)): potentiates other antibiotics more than the 300 mg three times a day dosage regime | CRISS versus placebo group across all concomitant antibiotics examined ([3]; 450 dose regimen, including 450 BID, post-hoc): non-significant improvements | CRISS versus placebo, patients not receiving azithromycin ([3]; across all cysteamine treatment regimens, post-hoc): significantly better than placebo | CRISS score at day 14 compared with placebo ([3]; other 450 doses (qd, tid)): non-significant reductions | Production of alginate/extracellular polysaccharide in mucoid strains ([4]; exposure to cysteamine): inhibited | Alginate production ([4]; isolate B, day 14 of 450 mg BID cysteamine, 120 h growth in MHB at 37° C., day 0 isolate A 19.93 μg/ml, mucoid): 4.47 µg/mL | Colony phenotype of isolate ([4]; isolate B, day 14 of 450 mg BID cysteamine, day 0 isolate mucoid): dry colonies | Blood Leukocyte Count, D 14 mean (blood leukocytes; 150 mg tid): 9.71e+09 L⁻¹ | Blood Leukocyte Count, D 14 Δbaseline mean (blood leukocytes; 150 mg tid): -2.64e+09 L⁻¹ | Blood Leukocyte Count, D 14 Δ −placebo mean (blood leukocytes; 150 mg tid, p 1.00): 0 L⁻¹ | Blood Leukocyte Count, D 14 mean (blood leukocytes; 300 mg tid): 1.055e+10 L⁻¹ | Blood Leukocyte Count, D 14 Δbaseline mean (blood leukocytes; 300 mg tid): -1.9e+08 L⁻¹ | Blood Leukocyte Count, D 14 Δ −placebo mean (blood leukocytes; 300 mg tid, p 0.84): -2.4e+08 L⁻¹ | Blood Leukocyte Count, D 14 mean (blood leukocytes; 450 mg bid): 7.45e+09 L⁻¹ | Blood Leukocyte Count, D 14 Δbaseline mean (blood leukocytes; 450 mg bid): -3.41e+09 L⁻¹ | Blood Leukocyte Count, D 14 Δ −placebo mean (blood leukocytes; 450 mg bid, p 0.033): -2.43e+09 L⁻¹ | Blood Leukocyte Count, D 14 mean (blood leukocytes; 450 mg qd): 8.52e+09 L⁻¹ | Blood Leukocyte Count, D 14 Δbaseline mean (blood leukocytes; 450 mg qd): -2.22e+09 L⁻¹ | Blood Leukocyte Count, D 14 Δ −placebo mean (blood leukocytes; 450 mg qd, p 0.22): -1.49e+09 L⁻¹ | Blood Leukocyte Count, D 14 mean (blood leukocytes; 450 mg tid): 9.79e+09 L⁻¹ | Blood Leukocyte Count, D 14 Δbaseline mean (blood leukocytes; 450 mg tid): -4.06e+09 L⁻¹ | Blood Leukocyte Count, D 14 Δ −placebo mean (blood leukocytes; 450 mg tid, p 0.33): -1.11e+09 L⁻¹ | CFQR PROM score [5]: non-significant improvements | Sputum Gram −ve organisms, Day 21 change from baseline, mean ([6]; 150 mg TID): −0.26 log10 CFU/ml | Sputum Gram −ve organisms, Day 14 LSMD (cysteamine − placebo) ([6]; 150 mg TID, p 0.9753): 0.03 log10 CFU/ml | Sputum Gram −ve organisms, Day 21 LSMD (cysteamine − placebo) ([6]; 150 mg TID, p 0.9511): 0.05 log10 CFU/ml | Sputum Gram −ve organisms, Day 14 change from baseline, mean ([6]; 150 mg tid): −1.24 log10 CFU/ml | Sputum Gram −ve organisms, D 14 mean ([6]; 150 mg tid for 14 days): 5.08 log10 CFU/ml | Sputum Gram −ve organisms, D 14 Δ −placebo mean ([6]; 150 mg tid, p 0.97): 0.03 log10 CFU/ml | Sputum Gram −ve organisms, Day 21 change from baseline, mean ([6]; 300 mg TID): −0.87 log10 CFU/ml | Sputum Gram −ve organisms, Day 14 LSMD (cysteamine − placebo) ([6]; 300 mg TID, p 0.3683): 0.82 log10 CFU/ml | Sputum Gram −ve organisms, Day 21 LSMD (cysteamine − placebo) ([6]; 300 mg TID, p 0.7802): −0.24 log10 CFU/ml | Sputum Gram −ve organisms, Day 14 change from baseline, mean ([6]; 300 mg tid): −0.98 log10 CFU/ml | Sputum Gram −ve organisms, D 14 mean ([6]; 300 mg tid for 14 days): 6.14 log10 CFU/ml | Sputum Gram −ve organisms, D 14 Δ −placebo mean ([6]; 300 mg tid, p 0.36): 0.87 log10 CFU/ml | Sputum Gram −ve organisms, Day 21 change from baseline, mean ([6]; 450 mg BID): −1.04 log10 CFU/ml | Sputum Gram −ve organisms, Day 14 LSMD (cysteamine − placebo) ([6]; 450 mg BID, p 0.4165): 0.72 log10 CFU/ml | Sputum Gram −ve organisms, Day 21 LSMD (cysteamine − placebo) ([6]; 450 mg BID, p 0.6117): −0.41 log10 CFU/ml | Sputum Gram −ve organisms, Day 21 change from baseline, mean ([6]; 450 mg QD): −1.22 log10 CFU/ml | Sputum Gram −ve organisms, Day 14 LSMD (cysteamine − placebo) ([6]; 450 mg QD, p 0.4445): 0.72 log10 CFU/ml | Sputum Gram −ve organisms, Day 21 LSMD (cysteamine − placebo) ([6]; 450 mg QD, p 0.0799): −1.56 log10 CFU/ml | Sputum Gram −ve organisms, Day 14 LSMD (cysteamine QD/BID − TID) ([6]; 450 mg TDD: 450 mg QD − 150 mg TID): 0.69 log10 CFU/ml | Sputum Gram −ve organisms, Day 21 change from baseline, mean ([6]; 450 mg TID): 0.93 log10 CFU/ml | Sputum Gram −ve organisms, Day 14 LSMD (cysteamine − placebo) ([6]; 450 mg TID, p 0.0602): 1.57 log10 CFU/ml | Sputum Gram −ve organisms, Day 21 LSMD (cysteamine − placebo) ([6]; 450 mg TID, p 0.2130): 0.99 log10 CFU/ml | Sputum Gram −ve organisms, Day 14 change from baseline, mean ([6]; 450 mg bid): −1.32 log10 CFU/ml | Sputum Gram −ve organisms, D 14 mean ([6]; 450 mg bid for 14 days): 6.25 log10 CFU/ml | Sputum Gram −ve organisms, D 14 Δ −placebo mean ([6]; 450 mg bid, p 0.61): 0.46 log10 CFU/ml | Sputum Gram −ve organisms, Day 14 change from baseline, mean ([6]; 450 mg qd): 0.12 log10 CFU/ml | Sputum Gram −ve organisms, D 14 mean ([6]; 450 mg qd for 14 days): 4.49 log10 CFU/ml | Sputum Gram −ve organisms, D 14 Δ −placebo mean ([6]; 450 mg qd, p 0.36): 0.90 log10 CFU/ml | Sputum Gram −ve organisms, Day 14 change from baseline, mean ([6]; 450 mg tid): 0.33 log10 CFU/ml | Sputum Gram −ve organisms, D 14 mean ([6]; 450 mg tid for 14 days): 6.27 log10 CFU/ml | Sputum Gram −ve organisms, D 14 Δ −placebo mean ([6]; 450 mg tid, p 0.059): 1.66 log10 CFU/ml | Sputum Gram −ve organisms, Day 14 LSMD (cysteamine QD/BID − TID) ([6]; 900 mg TDD: 450 mg BID − 300 mg TID): −0.11 log10 CFU/ml | Time to discharge from hospital (CF patient): 3 days
